Results: article PMC5564600 (Oncotarget, 2017)

Columns and labels:
Assay in all cases: biochemical
Type in all cases: binding
panel of 442 kinases [1] = molecular target: T1, panel of 442 kinases (Homo sapiens, UniProt O95382); details: ASK2; for remaining activity at 1 µM: read-out: % of control at 1 µM
T1 construct: purchased Ambit Biosciences (scanMAXX KINOMEscan)
T1 sequence (O95382 1-1288): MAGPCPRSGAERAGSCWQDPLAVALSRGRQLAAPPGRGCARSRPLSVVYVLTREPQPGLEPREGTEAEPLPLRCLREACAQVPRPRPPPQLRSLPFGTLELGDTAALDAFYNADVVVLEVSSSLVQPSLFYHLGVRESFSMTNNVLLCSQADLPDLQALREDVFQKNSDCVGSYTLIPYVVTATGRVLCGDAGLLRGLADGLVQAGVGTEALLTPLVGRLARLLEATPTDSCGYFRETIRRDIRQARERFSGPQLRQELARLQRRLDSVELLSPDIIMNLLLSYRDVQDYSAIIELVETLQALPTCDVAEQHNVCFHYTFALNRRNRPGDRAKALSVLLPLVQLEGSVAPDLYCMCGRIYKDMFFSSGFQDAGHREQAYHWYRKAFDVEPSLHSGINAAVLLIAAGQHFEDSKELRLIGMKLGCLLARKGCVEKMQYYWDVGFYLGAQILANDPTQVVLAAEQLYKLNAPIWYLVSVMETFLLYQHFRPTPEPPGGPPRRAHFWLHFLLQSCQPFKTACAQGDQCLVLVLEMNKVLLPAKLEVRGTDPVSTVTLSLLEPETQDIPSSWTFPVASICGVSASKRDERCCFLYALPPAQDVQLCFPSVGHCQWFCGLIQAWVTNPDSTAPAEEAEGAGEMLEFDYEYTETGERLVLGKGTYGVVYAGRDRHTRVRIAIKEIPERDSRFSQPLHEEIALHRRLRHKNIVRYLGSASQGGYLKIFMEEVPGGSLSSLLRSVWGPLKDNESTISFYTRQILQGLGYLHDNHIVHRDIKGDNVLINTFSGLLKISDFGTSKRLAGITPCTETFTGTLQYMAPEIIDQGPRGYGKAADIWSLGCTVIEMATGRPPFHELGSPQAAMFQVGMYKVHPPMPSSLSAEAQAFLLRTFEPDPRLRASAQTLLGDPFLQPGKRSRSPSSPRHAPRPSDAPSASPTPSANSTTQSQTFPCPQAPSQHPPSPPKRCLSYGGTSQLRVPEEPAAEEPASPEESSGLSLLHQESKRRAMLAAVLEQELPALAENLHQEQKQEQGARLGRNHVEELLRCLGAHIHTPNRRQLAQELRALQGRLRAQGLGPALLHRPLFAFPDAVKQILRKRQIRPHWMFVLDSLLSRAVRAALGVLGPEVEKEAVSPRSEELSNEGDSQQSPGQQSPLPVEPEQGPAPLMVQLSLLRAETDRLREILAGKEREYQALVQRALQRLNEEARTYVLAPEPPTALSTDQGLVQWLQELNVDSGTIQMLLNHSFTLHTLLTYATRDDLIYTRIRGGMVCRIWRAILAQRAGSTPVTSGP

panel of 442 kinases [2] = molecular target: T2, panel of 442 kinases (Homo sapiens, UniProt Q14289); details: kinase PYK2; for remaining activity at 1 µM: read-out: PYK2 (% of control at 1 µM)
T2 construct: purchased Ambit Biosciences (scanMAXX KINOMEscan)
T2 sequence (Q14289 whole entry): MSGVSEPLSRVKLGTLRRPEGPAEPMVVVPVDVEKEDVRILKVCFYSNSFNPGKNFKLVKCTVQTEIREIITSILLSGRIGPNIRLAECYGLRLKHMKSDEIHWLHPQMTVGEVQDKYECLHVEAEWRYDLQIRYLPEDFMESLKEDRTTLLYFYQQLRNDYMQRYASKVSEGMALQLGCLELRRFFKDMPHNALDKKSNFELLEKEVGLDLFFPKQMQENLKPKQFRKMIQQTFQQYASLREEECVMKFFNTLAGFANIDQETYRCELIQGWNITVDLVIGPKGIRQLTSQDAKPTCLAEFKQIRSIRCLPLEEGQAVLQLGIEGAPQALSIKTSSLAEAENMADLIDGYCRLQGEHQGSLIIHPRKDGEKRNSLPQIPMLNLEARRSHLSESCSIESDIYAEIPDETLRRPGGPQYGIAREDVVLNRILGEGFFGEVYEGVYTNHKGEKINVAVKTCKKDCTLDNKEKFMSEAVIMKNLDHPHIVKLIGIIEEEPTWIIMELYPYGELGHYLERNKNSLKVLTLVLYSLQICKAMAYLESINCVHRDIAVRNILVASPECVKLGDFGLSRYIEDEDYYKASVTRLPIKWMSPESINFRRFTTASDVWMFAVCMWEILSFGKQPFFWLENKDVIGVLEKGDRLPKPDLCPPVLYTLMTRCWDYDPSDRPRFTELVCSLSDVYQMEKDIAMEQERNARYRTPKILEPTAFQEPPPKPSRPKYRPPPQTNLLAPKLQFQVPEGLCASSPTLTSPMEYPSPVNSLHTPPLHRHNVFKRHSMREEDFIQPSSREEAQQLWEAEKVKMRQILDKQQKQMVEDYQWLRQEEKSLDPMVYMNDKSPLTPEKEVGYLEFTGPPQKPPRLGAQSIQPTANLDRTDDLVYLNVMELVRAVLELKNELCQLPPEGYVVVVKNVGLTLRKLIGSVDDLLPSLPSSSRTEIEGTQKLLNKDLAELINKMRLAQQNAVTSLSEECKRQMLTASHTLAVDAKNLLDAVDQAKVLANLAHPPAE

panel of 442 kinases [3] = molecular target: T3, panel of 442 kinases (Homo sapiens, UniProt O94806); details: kinase PRKD3; for remaining activity at 1 µM: read-out: PRKD3 (% of control at 1 µM)
T3 construct: purchased Ambit Biosciences (scanMAXX KINOMEscan)
T3 sequence (O94806 1-890): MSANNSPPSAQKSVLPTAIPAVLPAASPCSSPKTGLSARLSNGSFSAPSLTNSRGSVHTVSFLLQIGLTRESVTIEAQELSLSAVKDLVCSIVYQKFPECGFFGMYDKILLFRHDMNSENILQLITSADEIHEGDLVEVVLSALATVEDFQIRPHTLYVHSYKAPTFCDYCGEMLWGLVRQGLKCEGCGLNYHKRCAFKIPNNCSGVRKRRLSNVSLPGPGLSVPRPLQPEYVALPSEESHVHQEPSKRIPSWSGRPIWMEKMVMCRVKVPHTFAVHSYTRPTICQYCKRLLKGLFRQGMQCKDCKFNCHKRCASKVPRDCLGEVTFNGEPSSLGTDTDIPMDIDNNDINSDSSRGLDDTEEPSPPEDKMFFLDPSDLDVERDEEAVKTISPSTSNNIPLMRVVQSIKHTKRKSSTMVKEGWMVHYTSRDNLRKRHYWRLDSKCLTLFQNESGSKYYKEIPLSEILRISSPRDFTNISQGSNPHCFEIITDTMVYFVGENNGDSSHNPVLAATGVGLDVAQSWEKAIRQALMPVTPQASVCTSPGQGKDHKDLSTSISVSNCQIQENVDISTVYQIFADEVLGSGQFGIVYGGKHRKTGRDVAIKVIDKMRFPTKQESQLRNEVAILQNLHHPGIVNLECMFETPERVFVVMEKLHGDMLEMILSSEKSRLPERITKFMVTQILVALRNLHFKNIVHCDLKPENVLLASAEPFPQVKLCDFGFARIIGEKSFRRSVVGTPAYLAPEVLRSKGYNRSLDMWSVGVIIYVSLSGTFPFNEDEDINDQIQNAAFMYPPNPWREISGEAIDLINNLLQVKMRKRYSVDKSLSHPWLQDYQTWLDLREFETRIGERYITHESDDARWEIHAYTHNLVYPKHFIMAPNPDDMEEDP

panel of 442 kinases [4] = molecular target: T4, panel of 442 kinases (Homo sapiens, UniProt Q99755); details: kinase PIP5K1A; for remaining activity at 1 µM: read-out: % of control at 1 µM
T4 construct: purchased Ambit Biosciences (scanMAXX KINOMEscan)
T4 sequence (Q99755 whole entry): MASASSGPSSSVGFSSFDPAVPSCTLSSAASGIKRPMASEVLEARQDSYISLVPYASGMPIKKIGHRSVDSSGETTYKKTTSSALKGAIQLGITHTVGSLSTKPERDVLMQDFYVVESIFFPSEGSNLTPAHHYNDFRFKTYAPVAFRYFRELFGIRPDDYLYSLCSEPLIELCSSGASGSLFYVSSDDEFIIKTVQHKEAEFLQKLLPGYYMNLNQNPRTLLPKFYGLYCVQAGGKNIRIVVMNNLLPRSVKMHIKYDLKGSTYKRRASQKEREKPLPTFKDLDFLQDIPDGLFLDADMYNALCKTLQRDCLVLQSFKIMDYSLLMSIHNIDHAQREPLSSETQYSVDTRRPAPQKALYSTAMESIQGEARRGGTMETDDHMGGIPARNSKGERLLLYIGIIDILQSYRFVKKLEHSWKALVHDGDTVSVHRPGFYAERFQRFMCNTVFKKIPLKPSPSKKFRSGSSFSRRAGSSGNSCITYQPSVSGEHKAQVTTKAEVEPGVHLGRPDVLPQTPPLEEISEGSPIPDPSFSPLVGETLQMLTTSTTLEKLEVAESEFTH

panel of 442 kinases [5] = molecular target: T5, panel of 442 kinases (Homo sapiens, UniProt O14965); details: AURKA; for remaining activity at 1 µM: read-out: % of control at 1 µM
T5 construct: purchased Ambit Biosciences (scanMAXX KINOMEscan)
T5 sequence (O14965 1-403): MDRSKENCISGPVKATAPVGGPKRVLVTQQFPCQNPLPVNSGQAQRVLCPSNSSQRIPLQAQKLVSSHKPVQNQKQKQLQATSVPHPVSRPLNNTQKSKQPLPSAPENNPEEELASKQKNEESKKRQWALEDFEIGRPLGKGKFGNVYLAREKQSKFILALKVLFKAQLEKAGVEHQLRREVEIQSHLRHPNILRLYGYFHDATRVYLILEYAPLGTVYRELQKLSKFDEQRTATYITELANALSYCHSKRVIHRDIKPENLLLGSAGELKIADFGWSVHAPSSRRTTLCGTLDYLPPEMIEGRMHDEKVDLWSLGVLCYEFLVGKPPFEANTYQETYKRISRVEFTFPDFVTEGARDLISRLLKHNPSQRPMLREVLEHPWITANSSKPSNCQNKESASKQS

[6] = 10 µM, read-out: % of control at 10 µM

`Nc1cc(C(F)(F)F)c(-c2cc(N3CCOCC3)nc(N3CCOCC3)n2)cn1` [Buparlisib] was tested, and the remaining activity at 1 µM (panel of 442 kinases [1]) was 87%, the remaining activity at 10 µM (panel of 442 kinases [1]; [6]) was 100% and the remaining activity at 1 µM (panel of 442 kinases [2]) was 100%. It also gave a remaining activity at 10 µM (panel of 442 kinases [2]; 10 µM, read-out: PYK2 (% of control at 10 µM)) of 100%, a remaining activity at 1 µM (panel of 442 kinases [3]) of 94% and a remaining activity at 10 µM (panel of 442 kinases [3]; 10 µM, read-out: PRKD3 (% of control at 10 µM)) of 100%. For the same compound, the remaining activity at 1 µM (panel of 442 kinases [4]) was 100%, the remaining activity at 10 µM (panel of 442 kinases [4]; [6]) was 100% and the remaining activity at 1 µM (panel of 442 kinases [5]) was 100%. For the same compound, the remaining activity at 10 µM (panel of 442 kinases [5]; [6]) was 91%.
Work on `Cn1c(=O)n(-c2ccc(C(C)(C)C#N)cc2)c2c3cc(-c4cnc5ccccc5c4)ccc3ncc21` [Dactolisib, 2-methyl-2-[4-(3-methyl-2-oxo-8-quinolin-3-yl-2,3-dihydroimidazo[4,5-c]quinolin-1-yl)-phenyl] propionitrile] yielded a remaining activity at 1 µM (panel of 442 kinases [1]) of 90%, a remaining activity at 1 µM (panel of 442 kinases [2]) of 86% and a remaining activity at 1 µM (panel of 442 kinases [3]) of 100%. For the same compound, the remaining activity at 1 µM (panel of 442 kinases [4]) was 59% and the remaining activity at 1 µM (panel of 442 kinases [5]) was 100%.
`COc1ncc(-c2ccc3nccc(-c4ccnnc4)c3c2)cc1NS(=O)(=O)c1ccc(F)cc1F` [Omipalisib] showed a remaining activity at 1 µM (panel of 442 kinases [1]) of 91%, a remaining activity at 1 µM (panel of 442 kinases [2]) of 100% and a remaining activity at 1 µM (panel of 442 kinases [3]) of 100%. For the same compound, the remaining activity at 1 µM (panel of 442 kinases [4]) was 100% and the remaining activity at 1 µM (panel of 442 kinases [5]) was 100%.
`FC(F)c1nc2ccccc2n1-c1nc(N2CCOCC2)nc(N2CCOCC2)n1` [ZSTK474, 2-(difluoromethyl)-1-[4,6-di(4-morpholinyl)-1,3,5-triazin-2-yl]-1H-benzimidazole] was tested, and the remaining activity at 1 µM (panel of 442 kinases [1]) was 97%, the remaining activity at 1 µM (panel of 442 kinases [2]) was 100% and the remaining activity at 1 µM (panel of 442 kinases [3]) was 100%. For the same compound, the remaining activity at 1 µM (panel of 442 kinases [4]) was 100% and the remaining activity at 1 µM (panel of 442 kinases [5]) was 100%.
